From patent publication US7531194B2, “Plant extracts for the treatment of rheumatoid arthritis” (Development Center for Biotechnology, priority 2006, dated 2009) come the findings set out here.

Holding throughout (assay type): in vivo, Lewis rats
The subject of test [1] is CIA rats. The test can be described thus: Maximum arthritic index (MAI) of CIA rats fed PA extracts (Embodiment 4). How it is done: After immunization, the rats were observed three times a week. The changes of redness and swelling or the like in limbs were recorded, and photographs were taken and filed for comparison. The scoring of the examinations was based on 5 grades as follows:
Maximum arthritic index, average MAI for each group was calculated as follows: Average MAI=Total of MAI recorded in limbs of each rat (0: no CIA occurs, 16: highest score)/4/total rat number of each group
(§1) In the present animal test, the test animals and apparatus used are the same as those disclosed in embodiment 2.
(§2) The animal test scheme is shown as FIG. 11. Bovine collagen type II was dissolved in 0.1 M acetic acid solution, stirred to dissolve thoroughly, and formulated into solutions of concentrations of 1.5 and 3 mg/ml, which were stored at 4° C. for later use. For the first immune injection, 100 μl of C II solution was emulsified with an equal amount of CFA, and injected subcutaneously (200 μl/rat) in the root portions of tails of the rats after the emulsification was complete. […] After about 15 days, the second immunization was done. 100 μl of C II solution was emulsified with an equal amount of IFA, and injected subcutaneously (200 μl/rat) in the root portions of tails of the rats after the emulsification was complete. Approximately from Day 18, the symptoms of arthritis were observed (CIA rats), and PA and CBX were fed from Day 19 until Day 38.

Test [2] relates to IL-1β. As to the kind of experiment: PEC cytokine IL-1β, CIA rats fed PA extracts (Embodiment 4). How it is done: (§3) 1. After carbon dioxide euthanasia, the outer furs of the rat abdominal cavity were cut out by scissors, to expose the whole abdominal cavity.
(§4) 2. HBSS buffer was injected into the abdominal cavity batch-wise by a 10 ml syringe to make a total volume of about 20 ml/rat.
(§5) 3. The abdominal cavity of the rat was opened after the abdomen was gently kneaded. An incision of about 2 cm was made in the abdominal cavity by using scissors. Peritoneal exudation cell (PEC) liquid (about 10 to 15 ml of cellular fluid could be collected) was drawn with a syringe, and placed into a 50 ml centrifuge tube.
(§6) 4. The supernatant was removed after the liquid was centrifuged at 1500 rpm for 5 minutes. 10 ml of HBSS buffer was added to wash, and then centrifuged, after which the supernatant was removed.
(§7) 5. The cell concentration was adjusted to 2×10^6 cells/ml with a fresh culture medium (containing antibiotics).
(§8) 6. The cell suspension was divided into a 48-well plate at 0.5 ml/well.
(§9) 7. An additional. 0.5 ml of lipopolysaccharides (LPS) (20 μg/ml) was added separately, making a final concentration of 10 μg/ml.
(§10) 8. Finally, it was placed into a 37° C. incubator for 24 hours. The supernatant was collected, and stored in −20° C. The concentrations of cytokine TNF-α, IL-6, and IL-1β were analyzed by using ELISA kit.
as §1
The animal test scheme is shown as FIG. 11. Bovine collagen type II was dissolved in 0.1 M acetic acid solution, stirred to dissolve thoroughly, and formulated into solutions of concentrations of 1.5 and 3 mg/ml, which were stored at 4° C. for later use. For the first immune injection, 100 μl of C II solution was emulsified with an equal amount of CFA, and injected subcutaneously (200 μl/rat) in the root portions of tails of the rats after the emulsification was complete. […] After about 15 days, the second immunization was done. […]

The test system of test [3] is Rheumatoid factor (RF). The test can be described thus: Serum RF of CIA rats fed PA extracts (Embodiment 4). How it is done:
1. Collagen was formulated in a coating buffer to a concentration of 40 μg/ml, 0.1 ml of which was added into a 96-well micro plate respectively, and was kept in 4° C. overnight.
2. After washing with Tris buffer three times, 0.2 ml of blocking buffer containing 1% BSA was added into each well. The reaction lasted for 2 hours at room temperature, and then was washed by Tris buffer three times again.
3. After the serum sample was diluted appropriately with Tris buffer containing 0.05% Tween 20 ( 1/20 or 1/40), 0.1 ml serum sample was added into each well of the 96-well micro plate. The reaction lasted for 2 hours at room temperature, and then was washed by Tris buffer three times again.
4. Coated anti-rat immunoglobulin M (IgM) was combined with horseradish […] (HRP), appropriately diluted ( 1/12000), and then added into the 96-well micro plate. The reaction lasted 2 hours at room temperature, and then was washed by Tris buffer three times again.
5. 0.1 ml of tetramethyl benzidine (TMB) was directly added into each well for color reaction, and then a stopping solution was added to stop the reaction. Finally, absorption (O.D) value was read out at the wavelength of 450 nm.
as §1, §2

The subject of test [4] is IL-6. As to the kind of experiment: PEC cytokine IL-6, CIA rats fed PA extracts (Embodiment 4). As to conditions: PEC of CIA rats, gavage Day 19-38; doses as in the 4th table. How it is done: as §3, §4, §5, §6, §7, §8, §9, §10
In the present animal test, the test animals and apparatus used are the same as those disclosed in embodiment 2. […]

Test [5] has as its system CIA rats. The test can be described thus: Joint swelling degree (toe thickness) of CIA rats fed PA extracts (Embodiment 4). How it is done:
The thickness changes of soles of rats were measured by a Vernier Caliper (twice per week), and there were eight measurement sites in total in each rat, including one site at the center of each sole of the two front feet respectively, and three sites in each of the two back feet (ankle joint, sole, and root portion of toe) respectively.
as §1, §2

[6] abbreviates: gavage Day 19-38, doses as in the 4th table.
The mark [7] stands for this setting: PEC of CIA rats, gavage Day 19-38, doses as in the 4th table.

The structures appear in SMILES notation.

On to `Cc1ccc(-c2cc(C(F)(F)F)nn2-c2ccc(S(N)(=O)=O)cc2)cc1` [CBX, Ceelebrex], for which, in test [1] (setting [6]), the “MAI, inhibitory effect” value was “(40%)” and the “MAI, inhibitory effect (grade)” value is on record as “++ (“++” represents 25 to 50% of inhibitory effect)”. Also, the “effect on the arthritic indices (MAI) of CIA rats” value in test [1] (gavage Day 19 until Day 38, FIG. 13) is “most preferred”. Also, in test [2] (setting [7]), the “IL-1β, inhibitory effect” value is “(38%)” and the “IL-1β, inhibitory effect (grade)” value is reported as “++ (“++” represents 25 to 50% of inhibitory effect)”. The “inhibition of PEC secreting IL-1β” value in test [2] (PEC of fed CIA rats, FIG. 17) was “significantly inhibits”. Moreover, the “reduction of serum RF value” in test [3] (Day 30 compared to Day 18, FIG. 15) is recorded as “about 52%”. Besides, in test [3] (Day 37 compared to Day 18, FIG. 15), the “reduction of serum RF value” was “about 66%”. In addition, in test [3] (setting [6]), the “RF, inhibitory effect” value is given as “(43%)” and the “RF, inhibitory effect (grade)” value is “++ (“++” represents 25 to 50% of inhibitory effect)”. Also, in test [4], the “IL-6, inhibitory effect” value is recorded as “(36%)” and the “IL-6, inhibitory effect (grade)” value is recorded as “++ (“++” represents 25 to 50% of inhibitory effect)”. Also, the “Toe thickness, inhibitory effect (grade)” value in test [5] (gavage Day 19-38, CBX 18, PA-EtOH 40.5, PA-F1 3.0, PA-F2 1.13, PA-F3 11.3, PA-F4 11.3 mg/kg/day) is recorded as “++ (“++” represents 25 to 50% of inhibitory effect)”. Moreover, the “Toe thickness, inhibitory effect” value in test [5] (setting [6]) is listed as “(49%)”.
